In patent US10866241B2, “Method for the prognosis and treatment of cancer metastasis” (Fundació Institut de Recerca Biomèdica (IRB Barcelona), priority 2012, dated 2020):

Key:
[1] = system: osteoclast differentiation of mouse bone marrow-derived precursor cells; assay: Osteoclast differentiation from bone marrow cells with conditioned medium, TRAP technique; assay type: cell-based; details: co-incubation with PTHLH antagonist peptide (7-34), 5 μg/ml (FIG. 11c)
Procedure: b) Assay of osteoclast differentiation from mouse bone marrow-derived precursor cells using conditioned medium originated from MCF7 parental cells or cells over-expressing any of the c-MAF isoforms (short—short isoform and long—long isoform). The number of osteoclasts is measured by means of the TRAP technique (>3 Multinucleated cells).
c) Bone marrow cells treated with 50:50 osteoclast differentiation and conditioned media (CM) parental, c-MAF short and Long-expressing parental cells and BoM2 bone metastatic MCF7 cell derivatives or without CM but with human PTHLH antagonist peptide (7-34)(5 μg/ml), The number of osteoclasts is measured by means of the TRAP technique (Ostoclasts are >3 Multinucleated cells, Highlighted by white arrows) and normalized to control.
Without a direct activity of c-MAF in providing bone metastasis functions to breast cancer cells, c-MAF may instead transcriptionally control the activity of genes promoting homing and bone remodeling capabilities to colonize the bone. PTHLH expression was under the control of c-MAF. An observation confirmed by qPCR analysis (FIG. 11a). Further, patient breast cancer metastasis (GSE14020) growing in the bone retained c-MAF expression compared to metastasis elsewhere (FIG. 11b). Moreover, 77% of metastasis expressing MAF and PTHLH above the average were bone metastasis (FIG. 11b). […]

[2] = system: c-MAF expressing MCF7 breast cancer cells; assay: Bone metastasis of c-MAF expressing MCF7 cells injected intracardiacally, with or without PTHLH-AN; assay type: in vivo, mouse; details: 6 μg twice a day intraperitoneally in PBS, 47 days, vs PBS control (FIG. 11d,e)
Procedure: d) Parental, c-MAF short and long-expressing parental cells labeled with the luciferase gene were injected into the left ventricle of mouse and bone colonization was analyzed by in vivo bioluminiscent imaging. The mice injected with c-MAF short and long expressing parental cells were treated or not with PTHLH antagonist peptide (7-34) inoculated intraperitoneally (6 μg/animal) twice a day during the course of the experiment. The plot represents the total photon flux ex vivo at the experiment end point, which reflects the number of metastatic cells per lesion (left panel). Osteolytic bone metastasis lesions are depicted (right panel)
e) X-RAY (CT-scan) images of representative osteolytic lesions per group. […] TRAP positive osteoclast cells (Black) along bone tumor interface from lesions were counted in at least four different fields from each independent mouse and plotted with SD values. […] The statistical differences between groups are evaluated by means of the two-tailed wilcoxon test. […]
To test whether PTHLH mediates c-MAF driven bone metastasis in breast cancer cells, we injected c-MAF expressing MCF7 breast cancer cells intracardiacally and evaluated its capacity to establish and grow bone metastasis in the presence or absence of PTHLH-AN during the span of 47 days. […]

bone metastasis = assay: Prophylactic treatment for bone metastasis in subject with triple negative breast cancer and increased c-MAF; assay type: in vivo; details: 120 mg SC once monthly for 6 months, then every 3 months for 4 and a half years, with oral calcium and vitamin D
Procedure: A tumor tissue sample is obtained from a subject diagnosed as having triple negative breast cancer. The sample is sectioned into thin slices of tissue and embedded in paraffin. Each paraffin section is mounted on a slide. The slides are incubated with anti-MAF antibody. For visualization and detection of antibodies bound to MAF, antibodies conjugated with fluorescent dye are used. The slides are visualized by providing excitation beams to the fluorescent dyes. Images of fluorescent signals are taken by fluorescent microscopes. The relative expression level of c-MAF in the tumor sample is obtained by comparing the fluorescent signal in the tumor sample to that of a reference sample. The intensity in the tumor sample is correlated with the intensity in the reference sample, wherein a higher intensity in the tumor sample compared to the reference sample correlates with an increased risk of the subject having primary breast cancer metastasis to the bone. Alternatively, 16q22-24 locus,16q23 locus or c-MAF gene amplification or translocation determined using an in situ hybridization technique or similar
Based on the prognosis of increased risk of bone metastasis, the subject is administered the anti-RANKL antibody Denosumab as a prophylactic treatment for bone metastasis. 120 mg of Denosumab is administered to the subject subcutaneously (SC) once monthly for 6 months. […]

Substance	induction of osteoclast differentiation in vitro by conditioned media from cells expressing c-MAF [1]	extent of the hind limb osteolytic lesions [2]	number of osteoclast (TRAP+ cells) at the metastatic lesion perimeter [2]	evidence of bone metastasis after 5 years (bone metastasis)
PTHLH-AN: human PTHLH antagonist peptide (7-34Aa)	prevented	dramatic reduction	reduction in the number of osteoclast	–
Denosumab: fully human monoclonal antibody which binds to RANKL and prevents its activation, CAS number 615258-40-7	–	–	–	free of any evidence of bone-metastasis
